Source: patent US20100234349A1, “PHARMACEUTICAL COMBINATIONS OF A NICOTINE RECEPTOR MODULATOR AND A COGNITIVE ENHANCER” (priority 2006, published 2010)
“Also recorded” adds a separate entry of the source.

Tested on: mouse
Test: mouse marble burying paradigm
Format: in vivo
Protocol: FIGS. 3A-3D show mouse marble burying 15 minutes after s.c. dosing of 1-(3-Pyridyl)-homopiperazine (Compound 1F of WO 99/21834) as cognition enhancer, and 30 minutes after p.o. dosing of 3-(3-Pyridin-3-yl-[1,2,4]oxadiazol-5-yl)-benzonitrile (Compound 4.15) as positive allosteric modulator: […]

Row | Compound | ED50 (Mus musculus, sc, 0.25 h, read-out: ED50, mouse marble burying) [mg/kg] | effect in mouse marble burying, positive allosteric modulator alone (alone, dosed p.o. at 3 and 10 mg/kg, 30 minutes after dosing (FIG. 3A))
1 | c1cncc(N2CCCNCC2)c1 [Compound 1F of WO 99/21834, 1-(3-Pyridyl)-homopiperazine, reference compound] | 0.56 | –
2 | N#Cc1cccc(-c2nc(-c3cccnc3)no2)c1 [Compound 4.15, 3-(3-Pyridin-3-yl-[1,2,4]oxadiazol-5-yl)-benzonitrile] | – | no effect; also recorded: inactive
